# Data as given in PMC10850561, “Eutypellaolides A–J, Sesquiterpene diversity expansion of the polar fungus Eutypella sp. D-1” (Frontiers in Microbiology, 2024).
# Biological target: T1, PTP1B (Homo sapiens, UniProt P18031)
# T1 construct: gene PTPN1
# T1 sequence (P18031 1-435): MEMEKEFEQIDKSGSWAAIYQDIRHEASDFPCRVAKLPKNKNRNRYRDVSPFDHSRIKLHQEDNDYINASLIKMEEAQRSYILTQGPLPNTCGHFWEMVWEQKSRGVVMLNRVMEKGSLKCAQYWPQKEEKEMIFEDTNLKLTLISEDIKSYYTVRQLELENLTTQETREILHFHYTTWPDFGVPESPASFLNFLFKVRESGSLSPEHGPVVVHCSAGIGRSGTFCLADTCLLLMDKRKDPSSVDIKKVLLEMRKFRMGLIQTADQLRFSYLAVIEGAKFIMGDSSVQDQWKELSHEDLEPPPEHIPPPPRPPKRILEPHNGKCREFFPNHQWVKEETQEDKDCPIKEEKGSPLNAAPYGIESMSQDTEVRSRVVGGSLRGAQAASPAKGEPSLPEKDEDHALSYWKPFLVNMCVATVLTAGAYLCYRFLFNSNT
# Assay: PTP1B enzyme inhibition assay in 96-well microplates
# Type: biochemical
row,Structure (SMILES),IC50 [µM]
1,"CC1=CCC[C@@H]2CC3=C(CO)C(=O)OC3=CC12C (stereo partly drawn) [compound 11, eut-Guaiane]",43.2
2,"CO[C@]1(C)C2=CC3=C(CO)C(=O)OC3=C[C@]2(C)CC[C@@H]1O [compound 5, Eutypellaolide E]",44.8
3,"CC1=CC(=O)C[C@@]2(C)C=C3OC(=O)C(CO)=C3C=C12 [compound 14, 2-one-13hydroxy-3,5,8,7(11)-eudesmatetraen-12,8-olide]",49.5
